Experiments:
[1] = system: Phosphorylation of ERK1/2 in AsPC-1 cells; assay: Phospho-ERK1/2 MSD Assay; assay type: cell-based; conditions: Homo sapiens, ASPC1, 2 h, read-out: 2 h p-ERK (AsPC-1 cells), IC50, AsPC-1 cells, 2 h compound treatment
Experimental: AsPC-1 (ATCC® CRL-1682™) cells were cultured in RPMI 1640 Medium (ThermoFisher Scientific 11875093) containing 10% fetal bovine serum (ThermoFisher Scientific 16000044) and Ix penicillin-streptomycin-glutamine (ThermoFisher Scientific 10378016). Sixteen hours prior to compound treatment, AsPC-1 cells were seeded in 96-well cell culture plates at a density of 25,000 cells/well and incubated at 37° C., 5% CO2. A compound dose-response titration was diluted in growth media, added to appropriate wells of a cell culture plate, and then incubated at 37° C., 5% CO2 for 2 h. Following compound treatment, cells were washed with ice-cold Dulbecco's phosphate-buffered saline, no Ca^2+ or Mg^2+ (ThermoFisher Scientific 14190144), and then lysed in RIPA buffer (50 mM Tris-HCl pH 7.5, 1% Igepal, 0.5% sodium deoxycholate, 150 mM NaCl, and 0.5% sodium dodecyl sulfate) containing protease inhibitors (Roche 4693132001) and phosphatase inhibitors (Roche 4906837001). Phosphorylation of ERK1/2 in compound-treated lysates was assayed using Phospho-ERK1/2 Whole Cell Lysate kits (Meso Scale Discovery K151DWD) according to the manufacturer's protocol. Assay plates were read on a Meso Scale Discovery Sector Imager 6000, and data were analyzed using a 4-parameter logistic model to calculate IC50 values.

[2] = target: His-tagged KRAS G12D protein (Homo sapiens, UniProt P01116, G12D); assay: KRAS G12D TR-FRET Assay; assay type: binding
His-tagged KRAS G12D protein, sequence (P01116 1-188 isoform P01116-2 G12D): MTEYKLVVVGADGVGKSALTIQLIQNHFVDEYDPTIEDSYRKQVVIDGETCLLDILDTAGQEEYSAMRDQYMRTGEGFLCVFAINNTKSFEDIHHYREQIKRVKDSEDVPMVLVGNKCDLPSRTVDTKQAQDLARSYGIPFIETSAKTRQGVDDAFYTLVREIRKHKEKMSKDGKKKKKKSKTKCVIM
Experimental: KRAS G12D TR-FRET Assay Compounds of interest were prepared in a dose-response titration in DMSO, and 80 nL were added via Labcyte Echo to each well of a 384-well plate (Perkin Elmer 6008280). The His-tagged KRAS G12D protein (Amgen) was diluted to 20 nM in Assay Buffer (20 mM HEPES, pH 7.4, 10 mM MgCl2, 50 mM NaCl, 0.1% BSA, 0.01% Tween-20, 10 μM GDP) and 2 uL was added to the appropriate wells of the 384-well plate. The plate was incubated for 30 minutes at room temperature. Biotinylated KRPep-2d substrate (Amgen) was diluted to 20 nM in Assay Buffer and 2 μL was added to all wells and incubated for 1 hour at room temperature. Detection Reagent (0.4 nM LANCE Eu-W1024 Anti-6×-His (Perkin Elmer AD0401), 5 nM streptavidin-d2 (Cisbio 610SADLA)) was prepared in Assay Buffer, then 4 μL was added to the plate and incubated for 1 hour at room temperature. Plates were read using PerkinElmer EnVision (ex: 320 nm, em1: 665 nm, em2: 615 nm) and em1/em2 data was used to generate curve fits using a 4-parameter logistic model to calculate IC50 values.

[3] = target: GDP-bound KRAS protein (aa 1-169), containing both G12D and C118A amino acid substitutions (Homo sapiens, UniProt P01116, C118A/G12D); assay: KRAS G12D Coupled Nucleotide Exchange Assay; assay type: biochemical
GDP-bound KRAS protein (aa 1-169), containing both G12D and C118A amino acid substitutions, sequence (P01116 1-169 isoform P01116-2 G12D/C118A): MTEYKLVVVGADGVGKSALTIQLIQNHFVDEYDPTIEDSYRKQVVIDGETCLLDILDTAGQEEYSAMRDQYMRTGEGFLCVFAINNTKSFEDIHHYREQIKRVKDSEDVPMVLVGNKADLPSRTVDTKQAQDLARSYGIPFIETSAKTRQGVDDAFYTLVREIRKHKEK
Experimental: KRAS G12D Coupled Nucleotide Exchange Assay
Following compound pre-incubation, purified SOS protein (aa 564-1049) and GTP (Roche 10106399001) were added to the assay wells and incubated for an additional 30 min. […] The assay plates were then read on a PerkinElmer EnVision Multilabel Reader, using AlphaScreen® technology, and data were analyzed using a 4-parameter logistic model to calculate IC50 values.

Compound	IC50 [1]	IC50 [2]	IC50 [3]
CCc1c(F)ccc2cc(O)cc(-c3ccc4c(N5CCC[C@]6(CCO6)C5)nc(OC[C@@]56CCCN5C[C@H](F)C6)nc4c3F)c12 (single isomer, unassigned) [Example 76]	9 nM	5 nM	3 nM
CCc1c(F)ccc2cc(O)cc(-c3c(F)cc4c(N5CCC[C@]6(CNC(=O)O6)C5)nc(OC[C@@H]5C[C@@H](F)CN5C)nc4c3F)c12 (single isomer, unassigned) [Example 80]	7 nM	4 nM	2 nM
C[C@@]1(O)COCCN(c2nc(OC[C@@]34CCCN3C[C@H](F)C4)nc3c(F)c(-c4cc(O)cc5ccc(F)c(Cl)c45)c(F)cc23)C1 (single isomer, unassigned) [Example 81]	8 nM	5 nM	4 nM
CCc1c(F)ccc2cc(O)cc(-c3ccc4c(N5CCC[C@]6(COC(=O)O6)C5)nc(OC[C@@]56CCCN5C[C@H](F)C6)nc4c3F)c12 (single isomer, unassigned) [Example 86]	52 nM	6 nM	4 nM
CCc1c(F)ccc2cc(O)cc(-c3ccc4c(N5CCC[C@]6(CNC(=O)O6)C5)nc(OC[C@@]56CCCN5C[C@H](F)C6)nc4c3F)c12 (single isomer, unassigned) [Example 88]	13 nM	15 nM	6 nM
CCc1c(F)ccc2cc(O)cc(-c3ccc4c(N5CCC[C@@]6(CNC(=O)O6)C5)nc(OC[C@@]56CCCN5C[C@H](F)C6)nc4c3F)c12 (single isomer, unassigned) [Example 89]	14 nM	7 nM	5 nM
CCc1c(F)ccc2cc(O)cc(-c3c(F)cc4c(N5CCC[C@]6(CCO6)C5)nc(OC[C@@]56CCCN5C[C@H](F)C6)nc4c3F)c12 (single isomer, unassigned) [Example 90]	7 nM	5 nM	3 nM
CCc1c(F)ccc2cc(O)cc(-c3c(F)cc4c(N5CCC[C@]6(C5)C[C@@H](O)C6)nc(OC[C@@]56CCCN5C[C@H](F)C6)nc4c3F)c12 (single isomer, unassigned) [Example 91]	16 nM	5 nM	3 nM
CCc1c(F)ccc2cc(N)cc(-c3c(F)cc4c(N5CCC[C@]6(CNC(=O)O6)C5)nc(OC[C@@]56CCCN5C[C@H](F)C6)nc4c3F)c12 (single isomer, unassigned) [Example 97]	29 nM	4 nM	2 nM
C/C=C\c1c(C)cc2[nH]ncc2c1-c1c(F)cc2c(N3CCC[C@](O)(CF)C3)nc(OC[C@@]34CCCN3C[C@H](F)C4)nc2c1F (single isomer, unassigned) [Example 102]	36 nM	4 nM	3 nM
C/C=C\c1c(C)cc2[nH]ncc2c1-c1c(F)cc2c(N3CCOC[C@@](C)(O)C3)nc(OC[C@@]34CCCN3C[C@H](F)C4)nc2c1F (single isomer, unassigned) [Example 104]	30 nM	2 nM	1 nM
C/C=C\c1c(Cl)cc2[nH]ncc2c1-c1c(F)cc2c(N3CCC[C@](O)(C(F)F)C3)nc(OC[C@@]34CCCN3C[C@H](F)C4)nc2c1F (single isomer, unassigned) [Example 112]	125 nM	5 nM	5 nM
C/C=C\c1c(C)cc2[nH]ncc2c1-c1c(F)cc2c(N3CCC[C@]4(CCO4)C3)nc(OC[C@@]34CCCN3C[C@H](F)C4)nc2c1F (single isomer, unassigned) [Example 114]	87 nM	6 nM	5 nM
C/C=C\c1c(Cl)cc2[nH]ncc2c1-c1c(F)cc2c(N3CCC[C@@](C)(O)C3)nc(OC[C@@]34CCCN3C[C@H](F)C4)nc2c1F (single isomer, unassigned) [Example 120]	35 nM	4 nM	3 nM
CCc1c(F)ccc2cc(O)cc(-c3ccc4c(N5C[C@H](N)CC(F)(F)C5)nc(OC[C@@]56CCCN5C[C@H](F)C6)nc4c3F)c12 [Example 4, 4-(4-((R)-5-Amino-3,3-difluoropiperidin-1-yl)-8-fluoro-2-(((2R,7aS)-2-fluorotetrahydro-1H-pyrrolizin-7a(5H)-yl)methoxy)quinazolin-7-yl)-5-etbyl-6-fluoronaphthalen-2-ol]	426 nM	0.3 nM	0.5 nM

Continued by falling IC50 [1], values first:

IC50 [1]	IC50 [2]	IC50 [3]	Compound
166 nM	4 nM	3 nM	Cc1cc2[nH]ncc2c(-c2ccc3c(N4CCC[C@@](C)(O)C4)nc(OC[C@@]45CCCN4C[C@H](F)C5)nc3c2F)c1[C@H]1C[C@H]1C (single isomer, unassigned) [Example 107]
100 nM	4 nM	4 nM	C/C=C\c1c(Cl)cc2[nH]ncc2c1-c1ccc2c(N3CCC[C@](O)(CF)C3)nc(OC[C@@]34CCCN3C[C@H](F)C4)nc2c1F (single isomer, unassigned) [Example 109]
93 nM	9 nM	5 nM	C[C@@H]1CC1c1c(Cl)cc2[nH]ncc2c1-c1c(F)cc2c(N3CCOCC(O)(CF)C3)nc(OC[C@@]34CCCN3C[C@H](F)C4)nc2c1F (single isomer, unassigned) [Example 99]
90 nM	4 nM	3 nM	Cc1cc2[nH]ncc2c(-c2c(F)cc3c(N4CCC[C@](O)(CF)C4)nc(OC[C@@]45CCCN4C[C@H](F)C5)nc3c2F)c1C1CC1 (single isomer, unassigned) [Example 100]
48 nM	2 nM	3 nM	CCc1c(F)ccc2cc(O)cc(-c3ccc4c(N5CCC[C@@](C)(O)C5)nc(OC[C@@]56CCCN5C[C@H](F)C6)nc4c3F)c12 [Example 1, (R)-1-(7-(8-Ethyl-7-fluoro-3-hydroxynaphthalen-1-yl)-8-fluoro-2-(((2R,7aS)-2-fluorotetrahydro-1H-pyrrolizin-7a(5H)-yl)methoxy)quinazolin-4-yl)-3-methylpiperidin-3-ol]
41 nM	3 nM	3 nM	C/C=C\c1c(Cl)cc2[nH]ncc2c1-c1c(F)cc2c(N3CCC[C@]4(CCO4)C3)nc(OC[C@@]34CCCN3C[C@H](F)C4)nc2c1F (single isomer, unassigned) [Example 113]
39 nM	5 nM	3 nM	C/C=C\c1c(Cl)cc2[nH]ncc2c1-c1c(F)cc2c(N3CCC[C@](O)(CF)C3)nc(OC[C@@]34CCCN3C[C@H](F)C4)nc2c1F (single isomer, unassigned) [Example 101]
28 nM	7 nM	5 nM	CCc1c(F)ccc2cc(O)cc(-c3c(F)cc4c(N5CCC[C@]6(COC(=O)O6)C5)nc(OC[C@@]56CCCN5C[C@H](F)C6)nc4c3F)c12 (single isomer, unassigned) [Example 93]
28 nM	7 nM	3 nM	C[C@@H]1C[C@@H]1c1c(Cl)cc2[nH]ncc2c1-c1c(F)cc2c(N3CCOC[C@@](C)(O)C3)nc(OC[C@@]34CCCN3C[C@H](F)C4)nc2c1F (single isomer, unassigned) [Example 98]
26 nM	4 nM	4 nM	CCc1c(F)ccc2cc(O)cc(-c3c(F)cc4c(N5CCC[C@]6(CCS(=O)(=O)C6)C5)nc(OC[C@@]56CCCN5C[C@H](F)C6)nc4c3F)c12 (single isomer, unassigned) [Example 94]
24 nM	5 nM	2 nM	C[C@@]1(O)COCCN(c2nc(OC[C@@]34CCCN3C[C@H](F)C4)nc3c(F)c(-c4cc(O)cc5ccc(F)c(Cl)c45)ccc23)C1 (single isomer, unassigned) [Example 82]

Source: US20250179077A1, “QUINAZOLINE COMPOUNDS AND USES THEREOF AS INHIBITORS OF MUTANT KRAS PROTEINS” (AMGEN INC., priority 2022, published 2025)
